One experiment deals with Cdk9. Kind of experiment: Western blotting of Cdk9 activity (phospho RNA Pol II Ser 2). Format: cell-based, human. To be noted: 0 nM = 100. The protocol:
(§1) After treating the compound of Example 2 to SNU-354 cells, cell pellet was lysed with lysis buffer (0.5% triton X-100, 20 mM Tris-HCl (pH 7.5), 2 mM magnesium chloride, 1 mM DTT, 1 mM EGTA, 50 mM β-glycerophosphate, 25 mM sodium fluoride, 1 mM Na3VO4, 2 μg/mL leupeptin, 2 μg/mL pepstatin A, 100 μg/mL phenylmethylsulfonyl fluoride, and 1 μg/mL antipain) at 4° C. for 1 hour, followed by quantification of protein. A proper amount of protein was electrophoresed on SDS-PAGE gel and then transferred onto polyvinylidene difluoride membrane (Millipore Co., Bedford, Mass.). The membrane was reacted in inhibiting solution (PBS, 5% skim milk, 0.1% tween-20) at room temperature for 1˜2 hours. The membrane was reacted with the primary antibody (goat anti-phospho-Rb, rabbit anti-nucleolin) diluted in the inhibiting solution (1:1000). Then, the membrane was washed with PBST, followed by reaction with the proper secondary antibody (horseradish peroxidase (HRP) conjugated) at room temperature for 1 hour.
(§2) Experiment was performed by the same manner as described in step 2 of Experimental Example 1 except that rabbit anti-phospho RNA Pol II (Ser 5) and rabbit anti-phospho RNA Pol II (Ser 2) (from Bethyl, TX, USA) were used as primary antibodies. The results are shown FIG. 9˜FIG. 12, and Table 4 and Table 5.

Experiment [1] has as its system SNU-354 cells. Kind of experiment: Western blotting of PARP cleavage. Format: cell-based, human. To be noted: FIG. 17. As to the method: as §1
Experiment was performed by the same manner as described in step 2 of Experimental Example 2 except that rabbit anti-PARP was used as the primary antibody and the results are shown in FIG. 17.

For the next experiment, the system named is Cdk7. Kind of experiment: Western blotting of Cdk7 activity (phospho RNA Pol II Ser 5). The experiment is classed as cell-based, human. To be noted: 0 nM = 100. As to the method: as §1, §2
For another experiment, the target named is T1, Cdk2/cyclin A (Homo sapiens, UniProt P24941).
T1 construct: purchased Upstate
The experiment in a line: In vitro kinase activity assay, histone H1 phosphorylation by Cdk2/cyclin A. Format: biochemical. To be noted: for Phosphorylation (%) Cdk2: 0 nM = 100%. As to the method: To kinase assay buffer (50 mM Tris (pH 7.4), 10 mM magnesium chloride, 1 mM EGTA, 40 mM β-glycerophosphate, 0.1 mM Na3VO4, 1 mM DTT, 0.1 μg/mL leupeptin, 0.1 μg/mL pepstatin A, 0.1 μg/mL antipain and 1 mM phenylmethylsulfonyl fluoride) were added 5 μg histone H1 as a substrate, 20 ng Cdk1/cyclin B or 40 ng Cdk2/cyclin A recombinant protein (Upstate, NY, USA) as an enzyme, 2.5 μCi [γ-32P]ATP, and 100 μM MgAc/ATP. The total reaction volume was adjusted to 50 μl. The compound of Example 2 was added to the reaction mixture, followed by inducing kinase reaction at 30° C. for 20 minutes. Upon completion of the reaction, the reaction mixture proceeded to electrophoresis on 12% SDS-polyacrylamide gel. Phosphorylation levels of Cdk1 and Cdk2 over the concentrations of the compound of Example 2 were confirmed by autoradiography, and the results are shown in FIG. 1, FIG. 2, and Table 1.
The intensity of bands was analyzed by densitometry (GS-800, Bio-Rad).

The test system of a further experiment is p-Rb (Cdk2). The experiment in a line: Western blotting of p-Rb (Cdk2) in SNU-354 cells. Format: cell-based, human. As to the method: (§3) SNU-354 cells were cultured in RPMI 1640 (Invitrogen, CA, USA) supplemented with 10% FBS (Invitrogen) and antibiotics/antimycotics (Invitrogen) in a 5% CO2 incubator at 37° C. […]
as §1

The subject of a further experiment is Mcl-1, survivin, XIAP. The experiment in a line: Western blotting of Mcl-1, survivin, XIAP proteins in SNU-354 cells. The experiment is classed as cell-based, human. To be noted: FIG. 13. As to the method:
as §1
Experiment was performed by the same manner as described in step 2 of Experimental Example 1 except that rabbit anti-Mcl-1 (from Santa Cruz Biochemicals, CA, USA), rabbit anti-survivin, rabbit anti-XIAP (from Cell Signaling, MA, USA), and rabbit anti-Actin (from Sigma, USA) were used as primary antibodies.

Experiment [2] deals with SNU-354 xenografted tumor. Kind of experiment: TUNEL assay and cleaved caspase-3 immunohistochemistry of xenografted tumor. Format: in vivo, nude mice. To be noted: 4 and 20 mg/kg vs control; FIG. 23-A. The protocol:
All the xenografted tumors and liver tissues extracted above were fixed in 36% formaldehyde solution (Junsei Chemical Co., Ltd, Tokyo, JAPAN), followed by paraffin embedding. The embedded tissues were cut into 5 μm sections. H&E staining and TUNEL assay were performed for examining apoptosis with those sections. The expression of cleaved caspase-3 in the tissue section was measured by using cleaved caspase-3 monoclonal antibody (Cell Signaling, MA, USA). ABC peroxidase (Dako Cytomation California, Inc., CA, USA) labeling was performed for immunological sensitization and the results are shown in FIG. 23. As shown in FIG. 23-A, TUNEL positive spots and caspase-3 positive spots were observed more in the group treated with the compound of Example 2 than in the control. […] As shown in FIG. 23-B, it was investigated whether or not the compound of Example 2 could affect normal liver tissues.

A further experiment deals with p-Nucleolin (Cdk1). Kind of experiment: Western blotting of p-nucleolin (Cdk1) in SNU-354 cells. Format: cell-based, human. As to the method: as §3, §1
Experiment [3] concerns SNU-354 cells. The experiment in a line: Flow cytometry, sub G1 ratio change (Experimental Example 3). The experiment is classed as cell-based, human. The following applies: 10 μM, 24 hours, vehicle = 1.0. The protocol: SNU-354 cells were seeded in a 90 mm dish, to which vehicle and the compounds of Examples 2˜6 were treated at the concentration of 10 μM each for 24 hours. The cells were collected and washed with cold PBS, followed by reaction in 500 μl of cold 70% ethanol at 4° C. for overnight to fix the cells. The cells were washed with 500 μl of PBS three times, followed by reaction with 500 μl of PBS containing 50 μg/mL propidium iodide (P1) and 50 μl of 1 mg/mL RNAse A at room temperature for 30 minutes in the darkness. Fluorescence of the P1 stained cell was measured by using FACS caliber flow cytometer and cell quest program (Becton Dickinson Immunocytometry Systems, CA, USA). Sub G1 ratio changes of SNU-354 cells induced by the compounds were measured by FACS analysis.

SMILES strings stand for the structures.

The record followed here is patent US9062088B2, “CDK-inhibiting pyrrolopyrimidine carboxamide derivative or pharmaceutically acceptable salt thereof, and pharmaceutical composition containing the same as active ingredient for preventing or treating hepatocellular carcinoma” (SNU R&DB Foundation, priority 2010, dated 2015).

In the case of `NC(=O)c1c(Br)nc2n([C@H]3O[C@@H](CO)[C@H](O)[C@H]3O)cnc(N)c1-2` [Example 1, 4-amino-6-bromo-1-((2S,3R,4R,5S)-3,4-dihydroxy-5-(hydroxymethyl)-tetrahydrofuran-2-yl)-1H-pyrrolo[2,3-d]pyrimidine-5-carboxamide], the Cdk9 activity in the experiment with Cdk9 (0.1 nM) is 90.4%; with Cdk9 (0.5 nM) it was 87.0%; in the experiment on Cdk9 (1 nM) it was 46.1%; with Cdk9 (5 nM), 1.9%; with Cdk9 (10 nM), 1.3%; with Cdk9 (50 nM), 0.2%. Besides, the “PARP cleavage, time from the treatment after which it was caused” value with SNU-354 cells [1] was 12 h. The Cdk7 activity in the experiment with Cdk7 (0.1 nM) was determined as 90.1%; in the experiment on Cdk7 (0.5 nM) it was 76.3%; with Cdk7 (1 nM), 37.6%; in the experiment with Cdk7 (5 nM), 3.0%; with Cdk7 (10 nM), 1.7%; in the experiment on Cdk7 (50 nM), 0.3%.

With `CC(C)C(=O)OC[C@@H]1O[C@H](n2cnc(N)c3c(C(N)=O)c(Br)nc2-3)[C@H](O)[C@H]1O` [Example 2, ((2S,3R,4R,5S)-5-(4-amino-6-bromo-5-carbamoyl-1H-pyrrolo[2,3-d]pyrimidin-1-yl)-3,4-dihydroxy-tetrahydrofuran-2-yl)methyl isobutyrate], the Cdk9 activity with Cdk9 (0.1 nM) is 81.5%; in the experiment with Cdk9 (0.5 nM) it was 27.3%; with Cdk9 (1 nM), 11%; with Cdk9 (5 nM), 2.2%; in the experiment with Cdk9 (10 nM), 1.1%; with Cdk9 (50 nM), 0.7%. Also, the “Phosphorylation (%) Cdk2” value at Cdk2/cyclin A (10 nM) was 86.5%; at Cdk2/cyclin A (20 nM), 75.0%; at Cdk2/cyclin A (40 nM), 59.0%; on Cdk2/cyclin A (50 nM), 50%; on Cdk2/cyclin A (60 nM), 43.0%; at Cdk2/cyclin A (80 nM), 39.2%. Besides, on Cdk2/cyclin A (100 nM), the “Phosphorylation (%) Cdk2” value worked out at 4.5%. Also, inhibition against Cdk2/cyclin A (histone H1 phosphorylation) was half-maximal at 50 nM (IC50). Besides, the “Phosphorylation (%) p-Rb(Cdk2)” value in the experiment with p-Rb (Cdk2) (treatment time 6 (hours)) is listed as 3.6%; with p-Rb (Cdk2) (treatment time 12 (hours)), 2.7%; in the experiment with p-Rb (Cdk2) (treatment time 18 (hours)), 0.6%; with p-Rb (Cdk2) (treatment time 24 (hours)), 0.3%. The “Mcl-1, Survivin and XIAP protein level” value with Mcl-1, survivin, XIAP is “down-regulated”. Further, in the experiment with SNU-354 cells [1], the “PARP cleavage, time from the treatment after which it was caused” value was found to be 6 h. In addition, the “TUNEL positive spots and caspase-3 positive spots in xenografted tumor” value in experiment [2] is given as “observed more”. For the same compound, the Cdk7 activity with Cdk7 (0.1 nM) amounted to 88.4%; in the experiment on Cdk7 (0.5 nM) it was 44.0%; in the experiment on Cdk7 (1 nM), 12.7%; in the experiment with Cdk7 (5 nM), 3.3%; in the experiment on Cdk7 (10 nM), 1.6%; in the experiment with Cdk7 (50 nM), 0.6%. Also, the “Phosphorylation (%) p-Nucleolin (Cdk1)” value with p-Nucleolin (Cdk1) (treatment time 6 (hours)) is 96.9%; with p-Nucleolin (Cdk1) (treatment time 12 (hours)), 11.7%; in the experiment with p-Nucleolin (Cdk1) (treatment time 18 (hours)), 3.1%; in the experiment with p-Nucleolin (Cdk1) (treatment time 24 (hours)), 3.0%. In addition, the “sub G1 ratio change” value with SNU-354 cells [3] stood at 5.9.
